Key:
PI3Kγ = PI3Kγ (Homo sapiens, UniProt P48736); assay: PI3K (human) HTRF assay, PI3Kγ; type: biochemical; details: ATP 10 μM, mean ± SEM
panel of 442 kinases = panel of 442 kinases (Homo sapiens, UniProt Q16584); assay: biochemical; type: binding; details: kinase MLK3; 1 µM; read-out: % of control at 1 µM
mTOR = mTOR (Homo sapiens, UniProt P42345); assay: SelectScreen Z'LYTE kinase assay (Invitrogen), mTOR; type: biochemical; details: determined by Invitrogen, mean ± SEM, n=2

Structure (SMILES) | IC50 (PI3Kγ) | remaining activity at 1 µM (panel of 442 kinases) | IC50 (mTOR)
COc1ncc(-c2ccc3nccc(-c4ccnnc4)c3c2)cc1NS(=O)(=O)c1ccc(F)cc1F [Omipalisib] | 0.0012 ± 0.0002 µM |  | 
FC(F)c1nc2ccccc2n1-c1nc(N2CCOCC2)nc(N2CCOCC2)n1 [ZSTK474, 2-(difluoromethyl)-1-[4,6-di(4-morpholinyl)-1,3,5-triazin-2-yl]-1H-benzimidazole] |  | 56% | 0.102 ± 0.019 µM
